Here are results for 27 molecules from ChEMBL document CHEMBL5241085, “Pyrazolotriazines: Biological activities, synthetic strategies and recent developments” (Eur J Med Chem, 2021).

Structures are written as SMILES. ≈ marks a conversion by molar mass, not a printed value.

Series [1] concerns A549. The experiment in a line: Cytotoxicity against human A549 cells assessed as reduction in cell viability at 100 uM by MTT assay. The series is classed as functional, cell-based.
Another series deals with MDA-MB-231. The series is described as follows: Cytotoxicity against human MDA-MB-231 cells assessed as reduction in cell viability at 100 uM by MTT assay. The series is classed as functional, cell-based.
The target in series [2] is T1, Calcitonin gene-related peptide 1 (Homo sapiens, UniProt P06881).
T1 sequence (P06881 whole entry): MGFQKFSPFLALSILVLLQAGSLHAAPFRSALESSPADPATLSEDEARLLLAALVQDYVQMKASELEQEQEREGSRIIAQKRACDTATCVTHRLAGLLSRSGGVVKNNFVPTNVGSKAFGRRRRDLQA
The experiment in a line: Inhibition of CGRP (unknown origin).

Series [3] deals with T2, Glucose-dependent insulinotropic receptor (Homo sapiens, UniProt Q8TDV5).
T2 sequence (Q8TDV5 whole entry): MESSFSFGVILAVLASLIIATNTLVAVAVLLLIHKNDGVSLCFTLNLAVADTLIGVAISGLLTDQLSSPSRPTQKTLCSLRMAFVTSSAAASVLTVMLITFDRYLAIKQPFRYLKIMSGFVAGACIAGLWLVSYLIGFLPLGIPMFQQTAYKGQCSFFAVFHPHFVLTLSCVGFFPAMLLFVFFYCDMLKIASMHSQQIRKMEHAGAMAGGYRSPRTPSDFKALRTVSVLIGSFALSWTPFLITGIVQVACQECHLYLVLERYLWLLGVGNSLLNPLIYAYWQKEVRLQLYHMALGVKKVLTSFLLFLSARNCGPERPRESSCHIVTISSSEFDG
The series is described as follows: Inhibition of GPR119 (unknown origin) at 10 uM.

The target in series [4] is T3, Dipeptidyl peptidase 4 (Homo sapiens, UniProt P27487). The series is described as follows: Inhibition of human DPP4.
Series [5] deals with T3, Dipeptidyl peptidase 4. The series is described as follows: Inhibition of DPP4 (unknown origin).
Series [6] in a line: Inhibition of urease (unknown origin) measured after 20 mins.
Another series addresses T4, Tyrosinase (Homo sapiens, UniProt P14679).
T4 sequence (P14679 whole entry): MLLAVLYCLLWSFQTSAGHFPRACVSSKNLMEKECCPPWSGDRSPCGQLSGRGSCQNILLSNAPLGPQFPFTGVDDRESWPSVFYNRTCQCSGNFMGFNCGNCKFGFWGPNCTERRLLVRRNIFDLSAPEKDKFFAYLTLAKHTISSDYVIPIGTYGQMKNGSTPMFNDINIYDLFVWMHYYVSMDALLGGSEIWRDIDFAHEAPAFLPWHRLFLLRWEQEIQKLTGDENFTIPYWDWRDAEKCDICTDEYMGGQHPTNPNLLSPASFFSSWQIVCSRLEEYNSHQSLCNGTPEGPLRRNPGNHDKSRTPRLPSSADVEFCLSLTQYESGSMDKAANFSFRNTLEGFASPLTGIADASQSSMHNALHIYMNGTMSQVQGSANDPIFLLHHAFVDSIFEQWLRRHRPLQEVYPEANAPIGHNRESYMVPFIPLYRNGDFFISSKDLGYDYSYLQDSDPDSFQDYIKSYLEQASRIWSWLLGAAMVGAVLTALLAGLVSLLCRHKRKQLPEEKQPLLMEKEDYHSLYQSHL
The series is described as follows: Inhibition of tyrosinase (unknown origin) incubated for 20 mins.

In the next series the test system is Entamoeba histolytica. The experiment in a line: Antiparasitic activity against Entamoeba histolytica HM1:1MSS assessed as parasitic growth inhibition by microdilution method. The series is classed as functional, organism-based. For orientation: In broth dilution the organism is exposed to a series of concentrations in liquid medium.
Series [7] has as its system A549. The series is described as follows: Antiproliferative activity against human A549 cells. The series is classed as functional, cell-based.
The target of series [8] is T5, Cyclin-dependent kinase 2 (Homo sapiens, UniProt P24941). The series is described as follows: Inhibition of human CDK2 at 10 uM.
Series [9] concerns the target T5, Cyclin-dependent kinase 2. The series is described as follows: Inhibition of CDK2 (unknown origin). The settings on record: concentration not given here.
Series [10] can be described thus: Antiproliferative activity against human NCI cells assessed as reduction in cell viability at 100 uM by MTT assay. It is filed as functional. The note with it: read-out: GI. On the technique in general: Tetrazolium dyes change colour on reduction, which living cells bring about.
Series [11] concerns the target T6, Purine nucleoside phosphorylase (Homo sapiens, UniProt P00491).
T6 sequence (P00491 whole entry): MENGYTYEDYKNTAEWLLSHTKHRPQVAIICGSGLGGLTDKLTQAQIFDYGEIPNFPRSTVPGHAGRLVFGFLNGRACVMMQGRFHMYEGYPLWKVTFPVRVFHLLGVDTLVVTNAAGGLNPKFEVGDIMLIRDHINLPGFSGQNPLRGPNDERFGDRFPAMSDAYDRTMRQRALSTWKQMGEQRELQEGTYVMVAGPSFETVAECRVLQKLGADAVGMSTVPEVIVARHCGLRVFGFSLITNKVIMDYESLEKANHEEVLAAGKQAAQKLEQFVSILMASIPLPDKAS
The experiment in a line: Inhibition of PNP (unknown origin) expressed in Escherichia coli.

For series [12], the target named is GABA-A receptor; anion channel. The series is described as follows: In vivo receptor occupancy at GABAA receptor in po dosed Sprague-Dawley rat assessed as plasma concentration causing 50% reduction at 0.39 mg/kg measured after 48 hrs by LC/MS method. It is filed as functional, organism-based.
Series [13] in a line: Plasma protein binding in rhesus monkey. The series is classed as ADME, cell-free. The settings on record: Macaca mulatta.
Series [14] is described as follows: Half life in Sprague-Dawley rat at 1 mg/kg. It is filed as ADME, organism-based. The settings on record: in vivo.
Series [15] is described as follows: Half life in dog at 1 mg/kg. The series is classed as ADME, organism-based, Canis lupus familiaris. The settings on record: in vivo.
The nature of series [16]: Half life in rhesus monkey at 1 mg/kg, iv. The series is classed as ADME, organism-based, Macaca mulatta. The note with it: in vivo.
Series [17] in a line: Half life in human. The series is classed as ADME.
Series [18] has as its target T7, Tyrosinase (Homo sapiens) (UniProt P14679).
T7 sequence (whole entry): T4 sequence (P14679 whole entry)
The series is described as follows: Inhibition of tyrosinase (unknown origin) relative to control. The settings on record: concentration not given here.

Series [19] deals with T7, Tyrosinase (Homo sapiens). The series is described as follows: Inhibition of tyrosinase (unknown origin) assessed as enzyme residual activity at 0.07 mg/ml relative to control; values are per cent of control.
In series [20] the target is T8, Amine oxidase [flavin-containing] B (Homo sapiens, UniProt P27338).
T8 sequence (P27338 whole entry): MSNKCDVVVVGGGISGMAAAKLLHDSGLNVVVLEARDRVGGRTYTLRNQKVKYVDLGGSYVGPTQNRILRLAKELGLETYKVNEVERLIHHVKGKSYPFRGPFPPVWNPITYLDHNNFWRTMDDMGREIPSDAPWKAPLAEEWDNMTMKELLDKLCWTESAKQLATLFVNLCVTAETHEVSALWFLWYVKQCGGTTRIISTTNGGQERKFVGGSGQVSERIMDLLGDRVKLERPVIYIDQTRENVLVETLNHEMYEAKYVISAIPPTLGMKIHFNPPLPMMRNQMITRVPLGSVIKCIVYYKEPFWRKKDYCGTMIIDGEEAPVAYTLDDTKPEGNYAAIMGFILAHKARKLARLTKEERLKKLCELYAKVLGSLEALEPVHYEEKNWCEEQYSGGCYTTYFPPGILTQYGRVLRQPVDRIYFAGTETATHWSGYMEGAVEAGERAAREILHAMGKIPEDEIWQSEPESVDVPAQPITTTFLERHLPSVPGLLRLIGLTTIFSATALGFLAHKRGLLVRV
The experiment in a line: Inhibition of MAO-B (unknown origin).

Series [21] can be described thus: Oral bioavailability in rhesus monkey at 21 mg/kg. It is filed as ADME, organism-based, Macaca mulatta. The settings on record: in vivo.

T3 sequence (P27487 whole entry): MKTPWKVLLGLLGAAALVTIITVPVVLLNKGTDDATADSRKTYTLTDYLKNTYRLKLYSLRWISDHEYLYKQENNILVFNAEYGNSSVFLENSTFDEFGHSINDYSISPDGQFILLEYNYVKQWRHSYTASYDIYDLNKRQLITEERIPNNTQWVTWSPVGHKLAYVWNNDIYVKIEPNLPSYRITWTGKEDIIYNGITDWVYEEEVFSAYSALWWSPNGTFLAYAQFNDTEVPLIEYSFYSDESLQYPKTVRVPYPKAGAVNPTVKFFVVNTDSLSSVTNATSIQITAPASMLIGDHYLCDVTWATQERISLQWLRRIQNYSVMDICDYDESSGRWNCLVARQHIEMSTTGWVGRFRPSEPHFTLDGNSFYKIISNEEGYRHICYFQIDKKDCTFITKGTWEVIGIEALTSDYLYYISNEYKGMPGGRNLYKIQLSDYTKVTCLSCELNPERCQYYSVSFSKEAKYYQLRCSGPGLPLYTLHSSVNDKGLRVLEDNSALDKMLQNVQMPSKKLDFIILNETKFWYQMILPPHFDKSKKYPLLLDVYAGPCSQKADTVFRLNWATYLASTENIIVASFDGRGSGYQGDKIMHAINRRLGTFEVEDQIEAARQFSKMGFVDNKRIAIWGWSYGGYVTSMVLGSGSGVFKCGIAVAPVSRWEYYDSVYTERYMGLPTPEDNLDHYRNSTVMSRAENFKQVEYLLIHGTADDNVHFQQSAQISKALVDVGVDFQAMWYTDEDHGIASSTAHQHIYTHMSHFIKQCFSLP

Turning to `O=c1[nH]c(=O)n([C@H]2C[C@H](O)[C@@H](CO)O2)cc1F` [FLOXURIDINE], the IC50 with A549 [1] stood at 5.8 µM; in the series with MDA-MB-231, 38 µM.
For the molecule `CN(C)CCCNc1nc(N)nc2cc(-c3ccccc3)nn12`, the IC50 in [2] is 52.2 µM.
`Nc1nc(Nc2ccc(F)cc2)n2nc(-c3ccccc3)cc2n1`: the IC50 is 18.4 µM in [3] and 51.2 µM in series [2].
On to `N#Cc1cnn2c(=O)c([N+](=O)[O-])n[nH]c12`, for which the IC50 at Dipeptidyl peptidase 4 [4] is 61.1 µM.
Consider `Cc1ccc(Nc2nc(N)nc3cc(-c4ccccc4)nn23)cc1`, for which the IC50 in series [2] amounted to 7.6 µM.
`CCOC(=O)c1n[nH]c2c(C(=O)OCC)cnn2c1=O`: on Dipeptidyl peptidase 4 [5], the IC50 was 54 µM.
Take `CCOc1ccc(S(=O)(=O)N[C@@H](C)CO)cc1-c1nnc2c(n1)c(C)nn2C`: half-maximal inhibition in [6] (IC50) was put at 0.037 µM.
On to `CCOc1ccc(S(=O)(=O)N[C@@H](CO)CC(C)C)cc1-c1nnc2c(n1)c(C)nn2C`, for which half-maximal inhibition on Tyrosinase (IC50) required 27.9 µM.
For `Cc1nnc2n(NC(=S)NC3CCCCCCC3)c(C)nnc1-2`, the IC50 in the series with Entamoeba histolytica amounted to 0.81 µM.
In series [6], `CCOc1ccc(S(=O)(=O)NC[C@@H](C)O)cc1-c1nnc2c(n1)c(C)nn2C` had an IC50 of 0.044 µM.
For the molecule `Cc1ncc([N+](=O)[O-])n1CCO` [METRONIDAZOLE], the IC50 in the series on Entamoeba histolytica came out at 1.81 µM.
The molecule `O=c1cc2nc(-c3ccccc3)nc(SCCc3ccccc3)n2[nH]1` displayed an IC50 in the series on A549 [7] of 53 µM.
Molecule `NC(N)=S` [THIOUREA] had an IC50 in series [6] of 20.9 µM.
As to `CCOC(=O)c1cnn2c(-c3ccc(Cl)cc3)nc(NCc3ccccc3)nc12`, inhibition in series [8] was half-maximal at 1.85 µM (IC50). The same molecule came in with an inhibition in series [9] of 82.4%. In addition, the inhibition of growth at 100 µM in series [10] came out at 41.8%.
For `Cc1nnc2n(NC(=S)NC3CCCCC3)c(C)nnc1-2`, the IC50 in the series with Entamoeba histolytica is 0.81 µM.
`CSC1=NNC2NN=C(C)C2=N1` (centres undefined) showed an IC50 in [11] of 40 µM.
Regarding `N/C(=N\O)c1cnn2c(=O)c([N+](=O)[O-])n[nH]c12`, the IC50 against Dipeptidyl peptidase 4 [4] worked out at 63.6 µM.
In series [6], `CCOc1ccc(S(=O)(=O)N[C@H](CO)CC(C)C)cc1-c1nnc2c(n1)c(C)nn2C` registered a concentration for half-maximal inhibition (IC50) of 0.042 µM.
The molecule `CCOC(=O)c1cnn2c(=O)c(C(=O)NC(C)(C)C)n[nH]c12` showed an IC50 against Dipeptidyl peptidase 4 [5] of 48.1 µM.
With `Cc1cc(-c2nncc3c(C(C)(C)C)c(OCc4ncnn4C)nn23)no1`, the figures for the EC50 in series [12] and in series [13] were 0.0407 µM and 0.021 µg/mL (≈ 0.057 µM), respectively. For the same molecule, the half-life was 30 min in series [14], 30 min in series [15], 18 min in series [16] and 210 min in series [17].
As to `CCOc1ccc(S(=O)(=O)NCCN)cc1-c1nnc2c(n1)c(C)nn2C`, in [18], the inhibition was 3.7%. The residual activity in [19] was 96.3%.
With `Cc1nnc2n(NC(=S)NC3C4CC5CC(C4)CC3C5)c(C)nnc1-2` (centres undefined), the 50% inhibitory concentration (IC50) with Entamoeba histolytica was found to be 0.54 µM.
`CCOC(=O)c1cnn2c(=O)c([N+](=O)[O-])n[nH]c12` gave a concentration for half-maximal inhibition (IC50) against Dipeptidyl peptidase 4 [4] of 620 µM.
With `CCSc1nc(-c2ccc(C)cc2)n2nc(C)cc2n1`, the IC50 in series [20] was determined as 24.5 µM.
On to `O=C(NCCc1ccccc1)c1cnn2c(-c3ccc(Cl)cc3)nc(NCCc3ccccc3)nc12`, for which the IC50 in [8] worked out at 2.09 µM. The inhibition in series [9] was found to be 82%. In [10], the inhibition of growth at 100 µM stood at 33.3%.
In turn, `CCOc1ccc(S(=O)(=O)N[C@H](C)CO)cc1-c1nnc2c(n1)c(C)nn2C` came in with an IC50 against Tyrosinase of 30.8 µM.
Take `COCC(COC)Nc1nc(C)nc2c(-c3ccc(Cl)cc3Cl)c(C)nn12`: the bioavailability in series [21] is 50%.

One may read the IC50 as the concentration at which inhibition is half-maximal. As a reminder, the inhibition is the percentage by which the read-out fell short of the control. As usually defined, the EC50 is the concentration that produces a half-maximal response. As a reminder, the half-life is the time in which the quantity being followed falls by half. As a reminder, the residual activity is what remains of the control signal, in per cent. What is called bioavailability is dose-corrected exposure relative to a reference, in per cent.
